Laboratory results from patent publication US20020028255A1, “Pesticide treatment” (priority 1998, published 2002).

Columns and labels:
[1] = system: Maize (Pioneer 3394) seeds; assay: Damage (bleaching of the shoot) to maize seeds bathed in herbicide solutions, control vs hypochlorite-sterilized seed; assay type: in vivo; details: for damage to maize: low concentration
Experimental: Maize (Pioneer 3394) seeds were placed in a solution of 1% (w/w) sodium hypochlorite for 30 seconds, then rinsed thoroughly for 5 minutes with sodium bicarbonate solution (5% w/w).
Replicates of 20 seeds from each treatment were placed in petri dishes and bathed in 25 ml of the following solutions for 24 hours (covered and incubated at 25° C. in a growth cabinet).
After 24 hours the seeds were removed from the bathing solutions, rinsed thoroughly in water and planted (in green light- as some of the seeds had started to produce a coleoptile which is sensitive to daylight). Seeds were planted in duplicate in 10 cm×10 cm pots containing non-sterile loam and were overhead watered 3 times daily.
Assessments were made 7 and 14 DAT (days after treatment).

[2] = Vials of dione solution in water (500 ppt) treated with water containing chlorine (ppb); assay type: physicochemical; details: dione 500 ppt, ambient temperature
Experimental: (B) Vials containing 1 ml of solutions in water of the dione used in (A) (at a concentration of 500 ppt) were treated at ambient temperature with 1 ml of water containing 0.1 or 0.5 ppb concentrations of chlorine.

[3] = Cleaning of a contaminated 1000 l tank with sodium hypochlorite solution; assay type: physicochemical; details: tank wet with 0.02% (w/w) suspension; 10 l of 0.01% (w/w) sodium hypochlorite, one hour
Text: A 1000 l container or tank was used to prepare a suspension of dione pesticide (2-cyano-3-cyclopropyl- 1-(2-methylsulphonyl-4-trifluoromethylphenyl)propan-1,3-dione). The suspension was used to destroy the weeds in a crop growing area. The container was then still wet with aqueous suspension of 0.02% (w/w) of the pesticide.
10 l of 0.01% (w/w) solution of sodium hypochlorite is poured into the tank and stirred (so as to contact the whole inner surface of the container) and left for one hour.
Example 3 is repeated except that the pesticide is an isoxazole (5-cyclopropyl-4-(2-methylsulphonyl-4-trifluoromethylbenzoyl)isoxazole;IFT) and the pH of the hypochlorite solution is 8.5 (adjusted using NaOH).

[4] = Decomposition of DKN in bleach, followed by TLC; assay type: physicochemical; details: 1 g in 25 ml bleach (14 to 15% chlorine), ambient temperature, after 30 minutes
Experimental: 2-Cyano-3-cyclopropyl-1-2-methylsulphonyl-4-trifluoromethylphenyl)propan-1,3-dione(DKN:1 g) was added to 25 ml of bleach (containing 14 to 15% chlorine). The mixture was stirred at ambient temperature. After 3 minutes a clear solution formed. […] The main product was the corresponding benzoic acid.

[5] = Kinetics of decomposition of the dione in water in the presence of chlorine (ppm); assay type: physicochemical
Text: (A) The kinetics of the decomposition of 2-cyano-3-cyclopropyl-1-(2-methylsulphonyl-4-trifluoromethylphenyl)propan-1,3-dione in water was studied. The following Table summarizes the results obtained at pH7 or pH9 in the presence of 0.1 or 0.5 ppm of chlorine. The percentages given are of degradation of the dione to the corresponding benzoic acid, 2-methylsulphonyl-4-trifluoromethyl-benzoic acid.

[6] = control seed, 1.0 μg ml^−1, bathed 24 hours
[7] = control seed, 10.0 μg ml^−1, bathed 24 hours
[8] = sterilized seed (1% sodium hypochlorite), 1.0 μg ml^−1, bathed 24 hours
[9] = sterilized seed (1% sodium hypochlorite), 10.0 μg ml^−1, bathed 24 hours

CS(=O)(=O)c1cc(C(F)(F)F)ccc1C(=O)C(C#N)C(=O)C1CC1 (stereo not drawn) [DKN]
% Damage (bleaching of the shoot) [1, 6]: 0% | % Damage (bleaching of the shoot) [1, 7]: 0% | % Damage (bleaching of the shoot) ([1]; control seed, 100.0 μg ml^−1, bathed 24 hours): 87% | damage to maize ([1]; 1 μg ml^−1): No damage | % Damage (bleaching of the shoot) [1, 8]: 0% | % Damage (bleaching of the shoot) [1, 9]: 0% | % Damage (bleaching of the shoot) ([1]; sterilized seed (1% sodium hypochlorite), 100.0 μg ml^−1, bathed 24 hours): 11% | degradation of the dione ([2]; pH 5, Cl2 0.1 ppb, 15 min): 100% | degradation of the dione ([2]; pH 5, Cl2 0.5 ppb, 15 min): 100% | degradation of the dione ([2]; pH 7, Cl2 0.1 ppb, 15 min): 100% | degradation of the dione ([2]; pH 7, Cl2 0.5 ppb, 15 min): 100% | degradation of the dione ([2]; pH 9, Cl2 0.1 ppb, 60 min): >90% | degradation of the dione ([2]; pH 9, Cl2 0.5 ppb, 15 min): 100% | disappearance of pesticide from the tank [3]: All of the dione pesticide disappeared | DKN remaining by thin layer chromatography [4]: no DKN was detected | degradation of the dione to the corresponding benzoic acid ([5]; pH 7, Cl2 0.1 ppm, 15 min): 100% | degradation of the dione to the corresponding benzoic acid ([5]; pH 7, Cl2 0.5 ppm, 15 min): 100% | degradation of the dione to the corresponding benzoic acid ([5]; pH 9, Cl2 0.1 ppm, 15 min): 50% | degradation of the dione to the corresponding benzoic acid ([5]; pH 9, Cl2 0.1 ppm, 60 min): 100% | degradation of the dione to the corresponding benzoic acid ([5]; pH 9, Cl2 0.5 ppm, 15 min): 100%

CS(=O)(=O)c1cc(C(F)(F)F)ccc1C(=O)c1cnoc1C1CC1 [IFT, 5-cyclopropyl-4-(2-methylsulphonyl-4-trifluoromethylbenzoyl)isoxazole]
% Damage (bleaching of the shoot) ([1]; control seed, 0.1 μg ml^−1, bathed 24 hours): 0% | % Damage (bleaching of the shoot) [1, 6]: 20% | % Damage (bleaching of the shoot) [1, 7]: 98% | damage to maize ([1]; 0.1 μg ml^−1): No damage | % Damage (bleaching of the shoot) ([1]; sterilized seed (1% sodium hypochlorite), 0.1 μg ml^−1, bathed 24 hours): 0% | % Damage (bleaching of the shoot) [1, 8]: 13% | % Damage (bleaching of the shoot) [1, 9]: 100%
